Legend:
Test in all cases: post-emergence herbicidal activity, greenhouse
Format in all cases: in vivo
Barnyardgrass = system: Barnyardgrass
From the text: (§1) A good grade of top soil is placed in aluminum pans having holes in the bottom and compacted to a depth of 0.95 to 1.27 cm. from the top of the pan. A predetermined number of seeds of each of several dicotyledonous and monocotyledonous annual plant species and/or vegetative propagules for the perennial plant species are placed on the soil and pressed into the soil surface. The seeds and/or vegetative propagules are covered with soil and leveled. The pans are then placed on a sand bench in the greenhouse and watered from below as needed. After the plants reach the desired age (two to three weeks), each pan except for the control pans is removed individually to a spraying chamber and sprayed by means of an atomizer operating at a positive air pressure of approximately 1.46 kg/cm^2 absolute. The atomizer contains 6 ml. of a solution or suspension of the chemical. In that 6 ml., is an amount of a cyclohexanone emulsifying agent mixture to give a spray solution or suspension which contains about 0.4% by weight of the emulsifier. The spray solution or suspension contains a sufficient amount of the candidate chemical in order to give application rates corresponding to those set forth in the tables. The spray solution is prepared by taking an aliquot of a 1.0% by weight stock solution or suspension of the candidate chemical in an organic solvent such as acetone or tetrahydrofuran or in water. The emulsifying agent employed is a mixture comprising 35 weight percent butylamine dodecylbenzene sulfonate and 65 weight percent of a tall oil ethylene oxide condensate having about 11 moles of ethylene oxide per mole of tall oil. The pans are returned to the greenhouse and watered as before and the injury to the plants as compared to the control is observed at approximately two and four weeks as indicated in the tables under WAT and the results recorded. In some instances, the two-week observations are omitted.
(§2) The post-emergence herbicidal activity index used in Table I is as follows: […]

Cocklebur = system: Cocklebur
From the text: as §1, §2

Downy Brome = system: Downy Brome
From the text: as §1, §2

Johnsongrass = conditions: Table I
From the text: as §1, §2

Lambsquarters = system: Lambsquarters
From the text: as §1, §2

Morningglory = system: Morningglory
From the text: as §1, §2

Quackgrass = conditions: Table I
From the text: as §1, §2

Smartweed = system: Smartweed
From the text: as §1, §2

Velvetleaf = system: Velvetleaf
From the text: as §1, §2

Yellow Nutsedge = conditions: Table I
From the text: as §1, §2

Crabgrass = conditions: Table II, 2 WAT
From the text: as §1, §2

Hemp Sesbania = conditions: Table II, 2 WAT
From the text: as §1, §2

Panicum Spp = conditions: Table II, 2 WAT
From the text: as §1, §2

Rice = conditions: Table II, 2 WAT
From the text: as §1, §2

Sorghum = conditions: Table II, 2 WAT
From the text: as §1, §2

Soybean = conditions: Table II, 2 WAT
From the text: as §1, §2

Sugar Beet = conditions: Table II, 2 WAT
From the text: as §1, §2

Wheat = conditions: Table II, 2 WAT
From the text: as §1, §2

Wild Buckwheat = conditions: Table II, 2 WAT
From the text: as §1, §2

Compound: N#CCN(CP(=O)(Oc1ccccc1)Oc1ccccc1)SSC1CCCCC1 [X, Phosphonic acid, [[(cyanomethyl)(cyclohexyldithio)amino]methyl]-, diphenyl ester]
- post-emergence herbicidal activity index (Barnyardgrass; Table I, 2 WAT, 5.6 kg/h): 0 (0-24% control)
- post-emergence herbicidal activity index (Barnyardgrass; Table I, 4 WAT, 11.2 kg/h): 1 (25-49% control)
- post-emergence herbicidal activity index (Cocklebur; Table I, 2 WAT, 5.6 kg/h): 0 (0-24% control)
- post-emergence herbicidal activity index (Cocklebur; Table I, 4 WAT, 11.2 kg/h): 2 (50-74% control)
- post-emergence herbicidal activity index (Downy Brome; Table I, 2 WAT, 5.6 kg/h): 0 (0-24% control)
- post-emergence herbicidal activity index (Downy Brome; Table I, 4 WAT, 11.2 kg/h): 1 (25-49% control)
- post-emergence herbicidal activity index (Johnsongrass; 2 WAT, 5.6 kg/h): 0 (0-24% control)
- post-emergence herbicidal activity index (Johnsongrass; 4 WAT, 11.2 kg/h): 1 (25-49% control)
- post-emergence herbicidal activity index (Lambsquarters; Table I, 2 WAT, 5.6 kg/h): 3 (75-99% control)
- post-emergence herbicidal activity index (Lambsquarters; Table I, 4 WAT, 11.2 kg/h): 3 (75-99% control)
- post-emergence herbicidal activity index (Morningglory; Table I, 2 WAT, 5.6 kg/h): 0 (0-24% control)
- post-emergence herbicidal activity index (Morningglory; Table I, 4 WAT, 11.2 kg/h): 1 (25-49% control)
- post-emergence herbicidal activity index (Quackgrass; 2 WAT, 5.6 kg/h): 0 (0-24% control)
- post-emergence herbicidal activity index (Quackgrass; 4 WAT, 11.2 kg/h): 0 (0-24% control)
- post-emergence herbicidal activity index (Smartweed; Table I, 2 WAT, 5.6 kg/h): 0 (0-24% control)
- post-emergence herbicidal activity index (Smartweed; Table I, 4 WAT, 11.2 kg/h): 0 (0-24% control)
- post-emergence herbicidal activity index (Velvetleaf; Table I, 2 WAT, 5.6 kg/h): 1 (25-49% control)
- post-emergence herbicidal activity index (Velvetleaf; Table I, 4 WAT, 11.2 kg/h): 1 (25-49% control)
- post-emergence herbicidal activity index (Yellow Nutsedge; 2 WAT, 5.6 kg/h): 0 (0-24% control)
- post-emergence herbicidal activity index (Yellow Nutsedge; 4 WAT, 11.2 kg/h): 0 (0-24% control)

Compound: N#CCN(CP(=O)(Oc1ccccc1)Oc1ccccc1)SSCc1cccc(C(F)(F)F)c1 [VIII, Phosphonic acid, [[(cyanomethyl)[[[3-(trifluoromethyl)phenyl]methyl]dithio]amino]methyl]-, diphenyl ester]
- post-emergence herbicidal activity index (Barnyardgrass; Table I, 4 WAT, 5.6 kg/h): 2 (50-74% control)
- post-emergence herbicidal activity index (Barnyardgrass; Table I, 4 WAT, 11.2 kg/h): 2 (50-74% control)
- post-emergence herbicidal activity index (Cocklebur; Table I, 4 WAT, 5.6 kg/h): 1 (25-49% control)
- post-emergence herbicidal activity index (Cocklebur; Table I, 4 WAT, 11.2 kg/h): 2 (50-74% control)
- post-emergence herbicidal activity index (Downy Brome; Table I, 4 WAT, 5.6 kg/h): 1 (25-49% control)
- post-emergence herbicidal activity index (Downy Brome; Table I, 4 WAT, 11.2 kg/h): 2 (50-74% control)
- post-emergence herbicidal activity index (Johnsongrass; 4 WAT, 5.6 kg/h): 3 (75-99% control)
- post-emergence herbicidal activity index (Johnsongrass; 4 WAT, 11.2 kg/h): 3 (75-99% control)
- post-emergence herbicidal activity index (Lambsquarters; Table I, 4 WAT, 5.6 kg/h): 4 (100% control)
- post-emergence herbicidal activity index (Lambsquarters; Table I, 4 WAT, 11.2 kg/h): 4 (100% control)
- post-emergence herbicidal activity index (Morningglory; Table I, 4 WAT, 5.6 kg/h): 1 (25-49% control)
- post-emergence herbicidal activity index (Morningglory; Table I, 4 WAT, 11.2 kg/h): 1 (25-49% control)
- post-emergence herbicidal activity index (Quackgrass; 4 WAT, 11.2 kg/h): 0 (0-24% control)
- post-emergence herbicidal activity index (Smartweed; Table I, 4 WAT, 5.6 kg/h): 0 (0-24% control)
- post-emergence herbicidal activity index (Smartweed; Table I, 4 WAT, 11.2 kg/h): 0 (0-24% control)
- post-emergence herbicidal activity index (Velvetleaf; Table I, 4 WAT, 5.6 kg/h): 1 (25-49% control)
- post-emergence herbicidal activity index (Velvetleaf; Table I, 4 WAT, 11.2 kg/h): 1 (25-49% control)
- post-emergence herbicidal activity index (Yellow Nutsedge; 4 WAT, 5.6 kg/h): 2 (50-74% control)
- post-emergence herbicidal activity index (Yellow Nutsedge; 4 WAT, 11.2 kg/h): 2 (50-74% control)

Compound: N#CCN(CP(=O)(Oc1ccccc1)Oc1ccccc1)SSc1ccc(Cl)cc1 [XI]
- post-emergence herbicidal activity index (Barnyardgrass; Table I, 4 WAT, 5.6 kg/h): 0 (0-24% control)
- post-emergence herbicidal activity index (Barnyardgrass; Table I, 4 WAT, 11.2 kg/h): 3 (75-99% control)
- post-emergence herbicidal activity index (Barnyardgrass; Table II, 2 WAT, 1.12 kg/h): 0 (0-24% control)
- post-emergence herbicidal activity index (Barnyardgrass; Table II, 2 WAT, 5.6 kg/h): 1 (25-49% control)
- post-emergence herbicidal activity index (Cocklebur; Table I, 4 WAT, 5.6 kg/h): 0 (0-24% control)
- post-emergence herbicidal activity index (Cocklebur; Table I, 4 WAT, 11.2 kg/h): 3 (75-99% control)
- post-emergence herbicidal activity index (Cocklebur; Table II, 2 WAT, 1.12 kg/h): 0 (0-24% control)
- post-emergence herbicidal activity index (Cocklebur; Table II, 2 WAT, 5.6 kg/h): 3 (75-99% control)
- post-emergence herbicidal activity index (Crabgrass; 1.12 kg/h): 0 (0-24% control)
- post-emergence herbicidal activity index (Crabgrass; 5.6 kg/h): 3 (75-99% control)
- post-emergence herbicidal activity index (Downy Brome; Table I, 4 WAT, 5.6 kg/h): 0 (0-24% control)
- post-emergence herbicidal activity index (Downy Brome; Table I, 4 WAT, 11.2 kg/h): 1 (25-49% control)
- post-emergence herbicidal activity index (Downy Brome; Table II, 2 WAT, 1.12 kg/h): 0 (0-24% control)
- post-emergence herbicidal activity index (Downy Brome; Table II, 2 WAT, 5.6 kg/h): 1 (25-49% control)
- post-emergence herbicidal activity index (Hemp Sesbania; 1.12 kg/h): 0 (0-24% control)
- post-emergence herbicidal activity index (Hemp Sesbania; 5.6 kg/h): 1 (25-49% control)
- post-emergence herbicidal activity index (Johnsongrass; 4 WAT, 5.6 kg/h): 0 (0-24% control)
- post-emergence herbicidal activity index (Johnsongrass; 4 WAT, 11.2 kg/h): 2 (50-74% control)
- post-emergence herbicidal activity index (Lambsquarters; Table I, 4 WAT, 5.6 kg/h): 0 (0-24% control)
- post-emergence herbicidal activity index (Lambsquarters; Table I, 4 WAT, 11.2 kg/h): 4 (100% control)
- post-emergence herbicidal activity index (Lambsquarters; Table II, 2 WAT, 1.12 kg/h): 0 (0-24% control)
- post-emergence herbicidal activity index (Lambsquarters; Table II, 2 WAT, 5.6 kg/h): 3 (75-99% control)
- post-emergence herbicidal activity index (Morningglory; Table I, 4 WAT, 5.6 kg/h): 0 (0-24% control)
- post-emergence herbicidal activity index (Morningglory; Table I, 4 WAT, 11.2 kg/h): 1 (25-49% control)
- post-emergence herbicidal activity index (Morningglory; Table II, 2 WAT, 1.12 kg/h): 0 (0-24% control)
- post-emergence herbicidal activity index (Morningglory; Table II, 2 WAT, 5.6 kg/h): 1 (25-49% control)
- post-emergence herbicidal activity index (Panicum Spp; 1.12 kg/h): 0 (0-24% control)
- post-emergence herbicidal activity index (Panicum Spp; 5.6 kg/h): 1 (25-49% control)
- post-emergence herbicidal activity index (Quackgrass; 4 WAT, 5.6 kg/h): 0 (0-24% control)
- post-emergence herbicidal activity index (Quackgrass; 4 WAT, 11.2 kg/h): 2 (50-74% control)
- post-emergence herbicidal activity index (Rice; 1.12 kg/h): 0 (0-24% control)
- post-emergence herbicidal activity index (Rice; 5.6 kg/h): 1 (25-49% control)
- post-emergence herbicidal activity index (Smartweed; Table I, 4 WAT, 5.6 kg/h): 0 (0-24% control)
- post-emergence herbicidal activity index (Smartweed; Table I, 4 WAT, 11.2 kg/h): 2 (50-74% control)
- post-emergence herbicidal activity index (Smartweed; Table II, 2 WAT, 1.12 kg/h): 0 (0-24% control)
- post-emergence herbicidal activity index (Smartweed; Table II, 2 WAT, 5.6 kg/h): 1 (25-49% control)
- post-emergence herbicidal activity index (Sorghum; 1.12 kg/h): 0 (0-24% control)
- post-emergence herbicidal activity index (Sorghum; 5.6 kg/h): 1 (25-49% control)
- post-emergence herbicidal activity index (Soybean; 1.12 kg/h): 0 (0-24% control)
- post-emergence herbicidal activity index (Soybean; 5.6 kg/h): 1 (25-49% control)
- post-emergence herbicidal activity index (Sugar Beet; 1.12 kg/h): 1 (25-49% control)
- post-emergence herbicidal activity index (Sugar Beet; 5.6 kg/h): 3 (75-99% control)
- post-emergence herbicidal activity index (Velvetleaf; Table I, 4 WAT, 5.6 kg/h): 0 (0-24% control)
- post-emergence herbicidal activity index (Velvetleaf; Table I, 4 WAT, 11.2 kg/h): 2 (50-74% control)
- post-emergence herbicidal activity index (Velvetleaf; Table II, 2 WAT, 1.12 kg/h): 0 (0-24% control)
- post-emergence herbicidal activity index (Velvetleaf; Table II, 2 WAT, 5.6 kg/h): 3 (75-99% control)
- post-emergence herbicidal activity index (Wheat; 1.12 kg/h): 0 (0-24% control)
- post-emergence herbicidal activity index (Wheat; 5.6 kg/h): 2 (50-74% control)
- post-emergence herbicidal activity index (Wild Buckwheat; 1.12 kg/h): 0 (0-24% control)
- post-emergence herbicidal activity index (Wild Buckwheat; 5.6 kg/h): 3 (75-99% control)
- post-emergence herbicidal activity index (Yellow Nutsedge; 4 WAT, 5.6 kg/h): 0 (0-24% control)
- post-emergence herbicidal activity index (Yellow Nutsedge; 4 WAT, 11.2 kg/h): 1 (25-49% control)
